Experimental data published in patent US20250136617A1 (The Regents of the University of Colorado, A Body Corporate, priority 2022, published 2025).
“Also recorded” adds a separate entry of the source. Like-named read-outs stand apart in the source and are kept apart here.

Columns and labels:
miR-29a = experiment: qPCR of miR-29a expression in human dermal fibroblasts; type: cell-based; conditions: 24 hours, 0.1, 1 and 10 uM
Protocol: An additional secondary screen was performed to further validate activity of UCUF-728 as a selective CXCR4 receptor modulator. Human diabetic and non-diabetic fibroblasts were cultured with increasing concentrations of the compound. The cells were incubated for 24 hours and then total cellular RNA was isolated to examine the ability of the compound to correct the abnormal expression of miR15b, and miR29a. It has been shown that human diabetic skin has increased miR-15b expression at baseline compared to non-diabetic skin (Xu et al. “The role of microRNA-15b in the impaired angiogenesis in diabetic wounds.” Wound Repair Regen 2014; 22(5):671-7).
Diabetic and non-diabetic fibroblasts were cultured with increasing concentrations of a UCUF-965 compound. The cells were incubated for 24 hours and then total cellular RNA was isolated to examine the ability of the compound to correct the abnormal expression of miR15b, and miR29a. Angiogenesis is regulated by hypoxia and the production of growth factors such as Hypoxia-inducible Factor 1-alpha (HIF-1a) and Vascular Endothelial Growth Factor (VEGF). […] MicroRNA-15b (miR-15b) has been described as a key negative modulator of angiogenesis. Under hypoxia, miR-15b is repressed, resulting in an increased level of VEGF. Over-expression of miR-15b also markedly attenuates hypoxia induced vessel tube formation and cell migration. […]

CXCR4 = CXCR4 (Homo sapiens, UniProt P61073); experiment: Tag-Lite CXCR4 binding assay (displacement of fluorescent SDF-1α)
Protocol: Binding activity was measured using the Cisbio Tag-Lite Chemokine CXCR4 system (CisBio, Bedford, MA). […] Following three-hour incubation, HTRF measurements were taken using the BMG LABTECH CLARIOstar Plus (BMG LABTECH Inc., Cary, NC) with emission signals set to the Cisbio Tag-Lite Binding Assay supplier guidelines. HTRF ratio calculations completed according to supplier guidelines.

[1] = tested on: CEM-CCRF human lymphoblast cells; experiment: Transwell migration assay in CEM-CCRF lymphoblasts; type: cell-based
How it was run: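 CEM-CCRF cells at 5.0×10^5 cells/mL in RPMI 1640, preincubated 1 h at 37 °C, 5% CO2, then allowed to migrate in a 96-well transwell system for 3 h at 37 °C. Migrated cells in the receiver tray quantified by ATPLite luminescence.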

Chain of CXCR4 (P61073 whole entry): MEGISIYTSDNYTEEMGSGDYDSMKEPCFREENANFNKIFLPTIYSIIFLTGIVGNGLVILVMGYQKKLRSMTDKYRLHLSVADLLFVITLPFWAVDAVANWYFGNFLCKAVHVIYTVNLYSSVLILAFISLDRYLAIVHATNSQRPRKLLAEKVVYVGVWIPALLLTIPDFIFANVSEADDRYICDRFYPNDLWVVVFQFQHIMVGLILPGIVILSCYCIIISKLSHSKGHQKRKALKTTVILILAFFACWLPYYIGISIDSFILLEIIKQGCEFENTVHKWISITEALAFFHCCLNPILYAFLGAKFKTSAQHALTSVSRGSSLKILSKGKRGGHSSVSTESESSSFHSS

SMILES | miR-29a expression (miR-29a; listed as UCUF-728) | displacement of SDF-1α binding (CXCR4; listed as UCUF-728) | migration activity (words) ([1]; listed as UCUF-728) | miR-29a expression (miR-29a; listed as UCUF-965) | displacement of SDF-1α binding (CXCR4; listed as UCUF-965) | fold lower potency in migration vs β-arrestin recruitment assay [1] | migration activity (words) [1] | EC50 ([1]; Homo sapiens, read-out: Migration log EC50, log value, n=3 (converted)) | Migration CEM Emax (%) ([1]; listed as UCUF-965) | EC50 ([1]; read-out: Migration CEM EC50, listed as UCUF-965)
COc1ccc(OC)c(NS(=O)(=O)c2ccc(-c3cnc(C4CC4)o3)cc2)c1 [Oxazole Entry 19, 4-(2-Cyclopropyloxazol-5-yl)-N-(2,5-dimethoxyphenyl)benzenesulfonamide] | significant decrease in miR-29a expression level; also recorded: reduced miR-29a expression | did not displace SDF-1α binding; also recorded: did not displace SDF-1a saturation binding | induced migration with similar EC50 and Emax as the B-arrestin recruitment activity; also recorded: SDF-1α-mediated response was potentiated; also recorded: dose-dependent partial activation of CEM-CCRF cell migration |  |  |  |  |  |  | 
CCOc1ccccc1-c1nnc2n1N=C(c1ccc(N3CCCC3)cc1)CS2 [Thiadiazine Entry 23, 3-(2-ethoxyphenyl)-6-(4-(pyrrolidin-1-yl)phenyl)-7H-[1,2,4]triazolo[3,4-b][1,3,4]thiadiazine] |  |  |  | significant decrease in miR-29a; also recorded: decreased | did not displace fluorescently labelled SDF-1α binding; also recorded: did not displace SDF-1α saturation binding; also recorded: did not competitively displace | 10 fold | partial activator of CXCR4-mediated cell migration | 0.398 µM | 31% | 0.4 µM
